Source: article PMC9122598, “NASP maintains histone H3–H4 homeostasis through two distinct H3 binding modes” (Nucleic Acids Research, 2022)
“Also recorded” adds a separate entry of the source.

Assays:
Format in all cases: cell-based, human
[1] = test system: HCT116 wt and NASP-dTAG cells; experiment: Cell cycle distribution (high-content microscopy, EdU); conditions: 5 μM dTAG-13, 48 h; mean n=3; ns = P>0.05
Experimental: HCTT116 wt and NASP-dTAG cells were seeded at a density of 3000 cells per well in 96 well plates (6055300, Cell carrier) and treated with either dTAG-13 (5 μM, 48 hours) or DMSO (0.2%, 48 hours). Before fixation, newly replicated DNA was labelled with EdU (20 mins, 10 μM) at 37°C. Cells were washed in ice-cold PBS, fixed (4% paraformaldehyde, 15 mins, 4°C) and washes twice in ice cold PBS. EdU staining followed the Click-iT plus Alexa647-picolyl azide protocol (Thermo Scientific) and DNA was stained with DAPI (4′,6-diamidino-2-phenylindole). Images were acquired on an Olympus ScanR high-content microscope and analysed with ScanR analysis software. Cell cycle gates were defined using mean EdU and total DAPI intensities.

[2] = test system: endogenous s- and t-NASP (NASP-FKBP12^F36V); experiment: Depletion of endogenous NASP in NASP-dTAG cells (western blot, immunofluorescence); conditions: HCT116 NASP-dTAG, 5 μM dTAG-13, 48 h
Experimental: (§1) Unless stated otherwise cells were grown in DMEM with Glutamax (35050061, Gibco), 10% FBS (12389802, Hyclone) and 1% penicillin/streptomycin (15140122, Gibco) at 37°C with 5% CO2. HeLa S3 and HCT116 pLVX-TetOne-Puro cell lines were grown under Puromycin selection (1 μg/ml, P8833, Sigma). In Hela S3 and HCT116 pLVX-TetOne-Puro, the expression of sNASP-TwinStrep-HA, referred as sNASP-Strep-HA above, wt and mutants was induced by treatment with 2 μg/ml Doxycycline (631311, Clontech) for 24–48 hours. HCT116 NASP-FKBP12^F36V (NASP-dTAG) were treated with 0.2% DMSO (67–68-5, Sigma) or 5 μM dTAG-13 (6605, Tocris) for the indicated times, to induce the degradation of endogenous NASP. […] 24 hours after seeding, cells were treated with either 0.2% DMSO or 5 μM dTAG-13 for 48 hours, and cell viability was quantified with CellTiter-Blue® Cell Viability Assay (G8080, Promega), according to the manufacturer's instructions.
Protein concentrations were measured using Pierce™ 660 nm Protein Assay Reagent (Thermo Scientific) or the Bradford protein assay (Bio-Rad). […] Western blots from three independent biological replicates were quantified using the software ImageJ, version 1.0. […]

[3] = test system: soluble histone H3–H4 pool; experiment: Soluble histone pool in HCT116 NASP-dTAG cells (western blot of soluble extracts); conditions: 5 μM dTAG-13 48 h, complementation with DOX-induced sNASP
Experimental: as §1, with “instructions. […]” for “instructions.”
Protein concentrations were measured using Pierce™ 660 nm Protein Assay Reagent (Thermo Scientific) or the Bradford protein assay (Bio-Rad). […] Western blots from three independent biological replicates were quantified using the software ImageJ, version 1.0.

[4] = test system: HCT116 wt and NASP-dTAG cells; experiment: Cell viability (CellTiter-Blue); conditions: 5 μM dTAG-13, 48 h; mean n=3; ns = P>0.05
Experimental: Unless stated otherwise cells were grown in DMEM with Glutamax (35050061, Gibco), 10% FBS (12389802, Hyclone) and 1% penicillin/streptomycin (15140122, Gibco) at 37°C with 5% CO2. HeLa S3 and HCT116 pLVX-TetOne-Puro cell lines were grown under Puromycin selection (1 μg/ml, P8833, Sigma). In Hela S3 and HCT116 pLVX-TetOne-Puro, the expression of sNASP-TwinStrep-HA, referred as sNASP-Strep-HA above, wt and mutants was induced by treatment with 2 μg/ml Doxycycline (631311, Clontech) for 24–48 hours. HCT116 NASP-FKBP12^F36V (NASP-dTAG) were treated with 0.2% DMSO (67–68-5, Sigma) or 5 μM dTAG-13 (6605, Tocris) for the indicated times, to induce the degradation of endogenous NASP. In the complementation experiments, HCT116 cells were simultaneously treated with 2 μg/ml Doxycycline and either 0.2% DMSO or 5 μM dTAG-13 for 48 hours, to ensure a synchronized degradation of the endogenous protein and expression of sNASP-Strep-HA wt or mutants. For cell viability experiments, HCT116 cells were seeded at low confluency in a 24 well plate. 24 hours after seeding, cells were treated with either 0.2% DMSO or 5 μM dTAG-13 for 48 hours, and cell viability was quantified with CellTiter-Blue® Cell Viability Assay (G8080, Promega), according to the manufacturer's instructions.

[5] = test system: endogenous s- and t-NASP, histone H3; experiment: Co-immunoprecipitation of sNASP-FLAG-Myc from HeLa S3; conditions: HeLa S3, transient transfection
Experimental: Protein concentrations were measured using Pierce™ 660 nm Protein Assay Reagent (Thermo Scientific) or the Bradford protein assay (Bio-Rad). For immunoprecipitation, 2–3 mg of sNASP-FLAG-myc and sNASP-Strep-HA extracts were incubated for 3 hours at 4°C degrees with 50 μl of anti-Flag M2 (A2220, Sigma) or Anti-TwinStrep Mag-Strep beads (2–4090-002, Iba). After incubation, the beads were washed five times in ice-cold wash buffer (150 mM NaCl, 0.02% Nonidet P40, 50 mM Tris-HCl pH 7.6, 0.1 mM EDTA, 5% glycerol). Bound proteins were eluted with either Laemmli sample buffer 1X (LSB 4X: Tris-HCl (200 mM, pH 6.8), SDS 4%, glycerol (40%), DTT (100 mM)) or biotin elution buffer 1X (BXT buffer, 2–1042-025, Iba), respectively. Western blotting was performed as described previously ([11]). Western blots from three independent biological replicates were quantified using the software ImageJ, version 1.0.

Compound	Cell cycle distribution [1]	Depletion of endogenous NASP [2]	Level of soluble histones (H3, H4, H4K5ac) [3]	Cell viability relative to DMSO [4]	Pull down of endogenous s- and t-NASP [5]	Pull down of histone H3 [5]
CC[C@H](C(=O)N1CCCC[C@H]1C(=O)O[C@H](CCc1ccc(OC)c(OC)c1)c1ccccc1OCC(=O)NCCCCCCOc1cccc2c1C(=O)N(C1CCC(=O)NC1=O)C2=O)c1cc(OC)c(OC)c(OC)c1 (some centres unmarked) [dTAG-13]	non-significant; also recorded: without dramatic effects on cell cycle progression and cell proliferation	efficient and stable depletion of endogenous s- and t-NASP isoforms	reduced the pool of soluble histone H3–H4	non-significant; also recorded: without dramatic effects on cell cycle progression and cell proliferation		
sNASP 6E mutant: sNASP-FLAG-Myc V265E I272E L282E V286E I300E L307E					impaired	efficiently pulled down histone H3
sNASP wild type (wt): epitope-tagged sNASP wild type (FLAG-Myc or Strep-HA)			rescued the soluble histone pool		pulled down both endogenous s- and t- NASP	
